How the values were obtained:
[1] = tested on: HUMAN RSV-A (“LONG” STRAIN); experiment: RSV-A assay (CPE, ATPlite) in Hep-2 cells; type: cell-based; conditions: human respiratory syncytial virus, 120 h, MOI 0.1, 5-day incubation
In short: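 Protection from RSV cytopathic effect read by ATP luminescence (ATPlite) after 5-day culture. Genotype A "Long" virus added at MOI 0.1 to Hep-2 monolayers at 8,000 cells/well, pre-dosed with duplicate 2-fold compound dilutions; controls include infected untreated and uninfected wells. EC50 values binned into ranges.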

hMPV A2 TN/94-49 = experiment: HMPV antiviral assay Method 1 (LLC-MK2 cells, ATP-Lite); type: cell-based; conditions: hMPV A2 TN/94-49, LLC-MK2 cells
Method: In vitro HMPV antiviral activity was evaluated using the clinical isolate A2 strain TN 94-49 (obtained from Dr. John Williams, Vanderbilt University, Tennessee) and […] cells (ATCC #CCL-7), an immortalized kidney epithelial cell line from Macaca mulatta. Compounds were resuspended in dimethyl sulfoxide (DMSO) at 10 mM, serially diluted and added to a 384-well source plate. Subsequently, the compounds were diluted and transferred onto 384-well assay plates using the Echo-650 automated liquid handling system (Beckman Coulter, Indiana). The test compounds were assessed in duplicate at a top concentration of 2 μM followed by 2.5-fold serial dilutions to give a total of 10 concentration points. DMSO control wells were also included on the assay plates and were either infected or not, acting as positive and negative controls. A2 TN 94-49 virus infections were performed in-suspension with LLC-MK2 cells. The cells were washed twice with PBS and removed from the cell-culture flask with 0.25% trypsin-EDTA (Thermo Fisher Scientific, MA). The trypsin-EDTA was inactivated by resuspending in 2% fetal bovine serum (FBS) and OptiMEM (ThermoFisher Scientific, MA) containing 1% penicillin-streptomycin. Cells were pelleted by centrifuging for 5 minutes at 800 rpm, the supernatant was removed, and cells were re-suspended and washed in PBS plus 100 μg/mL CaCl2). This step was performed twice. Cells were then re-suspended in serum-free (SF)-OptiMEM containing 4 μg/mL TPCK-Trypsin (Sigma Aldrich, MO), 1% penicillin-streptomycin (ThermoFisher Scientific, MA) and 100 μg/mL CaCl2). Cells were counted and seeded at a density of 5,000 cells/well, 12.5 μL/well. Virus infections were done at a multiplicity of infection (MOI) of 0.005 with 12.5 μL added per well. Virus infections were performed in infection media which contained SF-OptiMEM, 100 μg/mL CaCl2) and 1% penicillin-streptomycin. HMPV viral stocks are suspended in infection media+5% glycerol, thus an equal volume of infection media+5% glycerol was added to uninfected wells to equalize the final % glycerol across all wells of the assay plate. The final concentration of TPCK-trypsin was 2 μg/mL. The assay plates were incubated at 37° C., 5% CO2 for 7 days. After 7 days incubation, 12.5 μL of ATP-Lite (PerkinElmer, MA) was added to each well and the raw luminescence values were determined using the Envision 2104 (Perkin Elmer, MA). The average of the raw luminescence values for the cells and virus only positive control wells was subtracted from all conditions tested and the percent cell health was determined by dividing these values by the average of the cells only negative control wells. EC50 values were then calculated by non-linear regression using a four-parameter curve logistic equation. The curve fit model employed was XLFit Dose Response One Site Model 200: y=(A+(B/(1+((x/C)^D)))), where A is the minimum y value, B is the maximum y value, C is the log EC50value, and D is the slope factor. Method 2: In Vitro HMPV Antiviral Activity was Evaluated Using the Clinical Isolate A2 Strain TN 94-49

| SMILES | EC50 [1] | EC50 (hMPV A2 TN/94-49) |
| --- | --- | --- |
| [2H]c1c([2H])c([2H])c([C@](O)(CNC(=O)c2cc(OC)c3nn(C4CC4)cc3c2)c2cc3c(c(-c4cc(Cl)c(F)cc4F)n2)OC[C@]3(C)C(N)=O)c([2H])c1[2H] [Example 169] | < 200 nM | < 500 nM |
| COc1cc(C(=O)NC[C@](O)(c2cc3c(c(-c4ccc5ccsc5c4)n2)OC[C@]3(C)C(N)=O)C2CC2)cc2cn(C3CC3)nc12 [Example 48] | < 200 nM | > 500 nM |
| COc1cc(C(=O)NC[C@@](O)(c2ccc(F)cc2)c2cc3c(c(-c4ccc(F)c(Cl)c4Cl)n2)OC[C@]3(C)C(N)=O)cc2cc(C3CC3)nn12 [Example 45] | < 200 nM | < 500 nM |
| C[C@]1(C(N)=O)COc2c1cc([C@@](O)(CNC(=O)c1cc(OC3CC3)c3nn(C4CC4)cc3c1)c1ccccc1)nc2-c1ccc2c(c1Cl)OC(F)(F)O2 [Example 252] | < 200 nM | < 500 nM |
| COc1cc(C(=O)NC[C@](O)(c2cc3c(c(-c4ccc(Cl)c(Cl)c4Cl)n2)OC[C@]3(C)C(N)=O)C2CC2)cc2cn(C3CC3)nc12 [Example 60] | < 200 nM | < 500 nM |
| CCNC(=O)[C@@]1(C)COc2c1cc([C@@](O)(CNC(=O)c1cc(OC)c3nn(C4CC4)cc3c1)c1ccccc1)nc2-c1cc(Cl)c(F)cc1F [Example 142] | < 200 nM | < 500 nM |
| COc1cc(C(=O)NC[C@@](O)(c2ccsc2)c2cc3c(c(-c4cc(F)c(F)cc4F)n2)OC[C@]3(C)C(N)=O)cc2cn(C(F)F)nc12 [Example 178] | < 200 nM | < 500 nM |
| COc1cc(C(=O)NC[C@@](O)(c2ccccc2)c2cc3c(c(-c4cc(C(F)(F)F)ccc4F)n2)OC[C@]3(C)C(N)=O)cc2cc(C3CC3)nn12 [Example 149] | < 200 nM | < 500 nM |
| COc1cc(C(=O)NC[C@@](O)(c2ccccc2)c2cc3c(c(-c4ccc(F)c(Cl)c4Cl)n2)OC[C@]3(C)C(N)=O)cc2cn(C3CC3)nc12 [Example 257] | < 200 nM | < 500 nM |
| COc1cc(C(=O)NC[C@@](O)(c2ccccc2)c2cc3c(c(-c4cccc(Cl)c4Cl)n2)OC[C@]3(C)C(N)=O)cc2cn(C(F)F)nc12 [Example 261] | < 200 nM | < 500 nM |
| COc1cc(C(=O)NC[C@](O)(c2cc3c(c(-c4cc(Cl)c(Cl)cc4Cl)n2)OC[C@]3(C)C(N)=O)C2CC2)cc2cn(C3CC3)nc12 [Example 62] | < 200 nM | > 500 nM |
| C[C@]1(C(N)=O)COc2c1cc([C@@](O)(CNC(=O)c1cc(OC(F)F)c3nn(C4CC4)cc3c1)C1CC1)nc2-c1ccc(F)c(Cl)c1F [Example 40] | < 200 nM | < 500 nM |
| [2H]C([2H])([2H])c1nc2c(OC)cc(C(=O)NC[C@@](O)(c3ccccc3)c3cc4c(c(-c5ccc6c(c5)OC(F)(F)O6)n3)OC[C@]4(C)C(N)=O)cc2s1 [Example 9] | < 200 nM | < 500 nM |
| C[C@]1(C(N)=O)COc2c1cc([C@@](O)(CNC(=O)c1ccc3nc(N)sc3c1)c1ccccc1)nc2-c1ccc2c(c1Cl)OC(F)(F)O2 [Example 256] | < 200 nM | < 500 nM |
| C[C@]1(C(N)=O)COc2c1cc([C@@](O)(CNC(=O)c1cc(OC(F)F)c3nn(C4CC4)cc3c1)C1CC1)nc2-c1cc(F)c(F)cc1F [Example 6] | < 200 nM | < 500 nM |
| C[C@]1(C(N)=O)COc2c1cc([C@@](O)(CNC(=O)c1cc(OC(F)F)c3nn(C4CC4)cc3c1)C1CC1)nc2-c1ccc(F)c(F)c1Cl [Example 39] | < 200 nM | < 500 nM |
| COc1cc(C(=O)NC[C@](O)(c2cc3c(c(-c4cccc(SC(F)(F)F)c4)n2)OC[C@]3(C)C(N)=O)C2CC2)cc2cn(C3CC3)nc12 [Example 36] | < 200 nM | > 500 nM |
| COc1cc(C(=O)NC[C@@](O)(c2ccsc2)c2cc3c(c(-c4cc(F)c(F)cc4F)n2)OC[C@]3(C)C(N)=O)cc2cn(C3CC3)nc12 [Example 177] | < 200 nM | < 500 nM |

Results, then the compound that gave them:

| EC50 [1] | EC50 (hMPV A2 TN/94-49) | SMILES |
| --- | --- | --- |
| < 200 nM | > 500 nM | [2H]C([2H])([2H])c1cc2cc(C(=O)NC[C@](O)(c3cc4c(c(-c5ccc(F)c(Cl)c5)n3)OC[C@]4(C)C(N)=O)C(F)(F)F)cc(OC)c2nc1C [Example 20] |
| < 200 nM | < 500 nM | [2H]C([2H])([2H])c1nc2c(OC)cc(C(=O)NC[C@@](O)(c3ccsc3)c3cc4c(c(-c5cc(Cl)c(F)cc5F)n3)OC[C@]4(C)C(N)=O)cc2s1 [Example 176] |
| < 200 nM | < 500 nM | [2H]C([2H])([2H])c1nc2c(OC)cc(C(=O)NC[C@@](O)(c3cccc(OC)c3)c3cc4c(c(-c5cc(Cl)c(F)cc5F)n3)OC[C@]4(C)C(N)=O)cc2s1 [Example 163] |
| < 200 nM | < 500 nM | COc1cc(C(=O)NC[C@@](O)(c2ccccc2)c2cc3c(c(-c4cc(Cl)c(F)cc4F)n2)OC[C@]3(C)C(N)=O)cc2cn(C(F)F)nc12 [Example 156] |
| < 200 nM | < 500 nM | [2H]C([2H])([2H])c1nc2c(OC)cc(C(=O)NC[C@@](O)(c3ccccc3)c3cc4c(c(-c5cc(Cl)c(F)cc5F)n3)OC[C@]4(C)C(N)=O)cc2s1 [Example 155] |
| < 200 nM | < 500 nM | COc1cc(C(=O)NC[C@@](O)(c2ccc(F)cc2)c2cc3c(c(-c4cc(Cl)c(F)cc4F)n2)OC[C@]3(C)C(N)=O)cc2cc(Cl)c(C)nc12 [Example 17] |
| < 200 nM | < 500 nM | [2H]C([2H])([2H])c1nc2c(OC)cc(C(=O)NC[C@@](O)(c3cccc(F)c3)c3cc4c(c(-c5ccc(F)c(Cl)c5Cl)n3)OC[C@]4(C)C(N)=O)cc2s1 [Example 272] |
| < 200 nM | > 500 nM | COc1cc(C(=O)NC[C@](O)(c2cc3c(c(-c4ccc5c(c4Cl)OC(F)(F)O5)n2)OC[C@]3(C)C(N)=O)C(F)(F)F)cc2cn(C3CC3)nc12 [Example 52] |
| < 200 nM | > 500 nM | COc1cc(C(=O)NC[C@](O)(c2cc3c(c(-c4cc(Cl)c(F)cc4F)n2)OC[C@]3(C)C(N)=O)C2CC2)cc2cc(C(F)(F)F)cnc12 [Example 1] |
| < 200 nM | < 500 nM | COc1cc(C(=O)NC[C@@](O)(c2ccc(F)cc2)c2cc3c(c(-c4ccc(F)c(Cl)c4Cl)n2)OC[C@]3(C)C(N)=O)cc2cc(Cl)c(C)nc12 [Example 44] |
| < 200 nM | < 500 nM | [2H]C([2H])([2H])c1nc2c(OC)cc(C(=O)NC[C@@](O)(c3ccccc3)c3cc4c(c(-c5ccc(F)c(Cl)c5Cl)n3)OC[C@]4(C)C(N)=O)cc2s1 [Example 273] |
| < 200 nM | > 500 nM | COc1cc(C(=O)NC[C@](O)(c2cc3c(c(-c4cc(Cl)cc(C)c4F)n2)OC[C@]3(C)C(N)=O)C2CC2)cc2cn(C3CC3)nc12 [Example 47] |
| < 200 nM | > 500 nM | COc1cc(C(=O)NC[C@](O)(c2cc3c(c(-c4cc(F)c(F)cc4F)n2)OC[C@]3(C)C(N)=O)C2CC2)cc2cc(C(F)(F)F)cnc12 [Example 46] |
| < 200 nM | < 500 nM | COc1cc(C(=O)NC[C@](O)(c2cc3c(c(-c4cc(C(F)(F)F)ccc4C)n2)OC[C@]3(C)C(N)=O)C2CC2)cc2cn(C3CC3)nc12 [Example 53] |
| < 200 nM | < 500 nM | [2H]C([2H])([2H])c1nc2c(OC)cc(C(=O)NC[C@](O)(c3cc4c(c(-c5cc(Cl)c(F)cc5F)n3)OC[C@]4(C)C(N)=O)C3CC3)cc2s1 [Example 10] |
| < 200 nM | < 500 nM | [2H]C([2H])([2H])c1nc2c(OC)cc(C(=O)NC[C@@](O)(c3ccc(F)cc3)c3cc4c(c(-c5cc(Cl)c(F)cc5F)n3)OC[C@]4(C)C(N)=O)cc2s1 [Example 16] |
| < 200 nM | > 500 nM | COc1cc(C(=O)NC[C@](O)(c2cc3c(c(-c4ccc(C(F)(F)F)c(C)c4)n2)OC[C@]3(C)C(N)=O)C2CC2)cc2cn(C3CC3)nc12 [Example 55] |
| < 200 nM | < 500 nM | COc1cc(C(=O)NC[C@@](O)(c2cccc(F)c2)c2cc3c(c(-c4cc(Cl)c(F)cc4F)n2)OC[C@]3(C)C(N)=O)cc2cn(C(F)F)nc12 [Example 134] |
